# Results as given in patent US20120183579A1, “COMPOUNDS FOR INFLAMMATION AND IMMUNE-RELATED USES” (Synta Pharmaceuticals Corp., priority 2008, published 2012).
# Where a name gives a salt, the structure may show the parent alone.
# System: IL-2
# Assay: Inhibition of IL-2 production (Jurkat cells activated with PHA, ELISA)
# Type: cell-based
# Conditions: Homo sapiens, Jurkat, Jurkat/PHA/1% FBS; numeric values
# Method: Jurkat cells were placed in a 96 well plate (0.5 million cells per well in 1% FBS medium), and then a test compound of this invention was added at different concentrations. After 10 minutes, the cells were activated with PHA (final concentration 2.5 μg/mL) and incubated for 20 hours at 37° C. under 5% CO2. The final volume was 200 μL. Following incubation, the cells were centrifuged, and the supernatants collected and stored at −70° C. prior to assaying for IL-2 production. A commercial ELISA kit (IL-2 Eli-pair, Diaclone Research, Besancon, France) was used to detect production of IL-2, from which dose response curves were obtained. The IC50 value was calculated as the concentration at which 50% of maximum IL-2 production after stimulation was inhibited versus a non-stimulation control.
row,Structure (SMILES),IC50
1,"CC1=C(c2ccc(NC(=O)c3c(F)cncc3F)cc2)CN(c2ccccn2)CC1 [Compound 26, 3,5-difluoro-N-(4-(4-methyl-1-(pyridin-2-yl)-1,2,5,6-tetrahydropyridin-3-yl)phenyl)isonicotinamide hydrochloride]",0.018 µM
2,"CC1=C(c2ccc(NC(=O)c3ccncc3Cl)cc2)CN(c2nnn(C)n2)CC1 [Compound 27, 3-chloro-N-(4-(4-methyl-1-(2-methyl-2H-tetrazol-5-yl)-1,2,5,6-tetrahydropyridin-3-yl)phenyl)isonicotinamide]",0.019 µM
3,"O=C(Nc1ccc(C2=C(Cl)CCN(c3nccs3)C2)cc1)c1c(F)cccc1F [Compound 28, N-(4-(4-chloro-1-(thiazol-2-yl)-1,2,5,6-tetrahydropyridin-3-yl)phenyl)-2,6-difluorobenzamide]",0.019 µM
4,"CC1=C(c2ccc(NC(=O)c3cccc(F)c3Cl)cc2)CN(c2nnn(C)n2)CC1 [Compound 29, 2-chloro-3-fluoro-N-(4-(4-methyl-1-(2-methyl-2H-tetrazol-5-yl)-1,2,5,6-tetrahydropyridin-3-yl)phenyl) benzamide]",0.02 µM
5,"CC1=C(c2ccc(NC(=O)c3ccccc3F)cc2)CN(c2nnn(C)n2)CC1 [Compound 30, 2-fluoro-N-(4-(4-methyl-1-(2-methyl-2H-tetrazol-5-yl)-1,2,5,6-tetrahydropyridin-3-yl)phenyl)benzamide]",0.021 µM
6,"CC1=C(c2cnc(NC(=O)c3ccccc3Cl)cn2)CN(c2nccnc2Cl)CC1 [Compound 35, 2-chloro-N-(5-(1-(3-chloropyrazin-2-yl)-4-methyl-1,2,5,6-tetrahydropyridin-3-yl)pyrazin-2-yl)benzamide]",0.023 µM
7,"CC1=C(c2ccc(NC(=O)c3cnccc3C)cc2)CN(c2ncccc2F)CC1 [Compound 36, N-(4-(1-(3-fluoropyridin-2-yl)-4-methyl-1,2,5,6-tetrahydropyridin-3-yl)phenyl)-4-methylnicotinamide]",0.024 µM
8,"CC1=C(c2ccc(NC(=O)c3cccc(F)c3C)nc2)CN(c2nnn(C)n2)CC1 [Compound 37, 3-fluoro-2-methyl-N-(5-(4-methyl-1-(2-methyl-2H-tetrazol-5-yl)-1,2,5,6-tetrahydropyridin-3-yl)pyridin-2-yl) benzamide]",0.024 µM
9,"CC1=C(c2cnc(NC(=O)c3c(F)cccc3F)cn2)CN(c2ccncc2F)CC1 [Compound 38, 2,6-difluoro-N-(5-(1-(3-fluoropyridin-4-yl)-4-methyl-1,2,5,6-tetrahydropyridin-3-yl)pyrazin-2-yl)benzamide]",0.026 µM
10,"CC1=C(c2ccc(NC(=O)c3sccc3C)cc2)CN(c2nccs2)CC1 [Compound 39, 3-methyl-N-(4-(4-methyl-1-(thiazol-2-yl)-1,2,5,6-tetrahydropyridin-3-yl)phenyl)thiophene-2-carboxamide]",0.027 µM
11,"CC1=C(c2ccc(NC(=O)c3ccncc3C)cc2)CN(c2ncccc2F)CC1 [Compound 41, N-(4-(1-(3-fluoropyridin-2-yl)-4-methyl-1,2,5,6-tetrahydropyridin-3-yl)phenyl)-3-methylisonicotinamide]",0.028 µM
12,"CC1=C(c2ccc(NC(=O)c3c(F)cc(F)cc3F)cc2)CN(c2ncccc2C#N)CC1 [Compound 43, N-(4-(1-(3-cyanopyridin-2-yl)-4-methyl-1,2,5,6-tetrahydropyridin-3-yl)phenyl)-2,4,6-trifluorobenzamide]",0.031 µM
13,"COc1cccc(F)c1C(=O)Nc1cnc(C2=C(C)CCN(c3ncccc3F)C2)cn1 [Compound 46, 2-fluoro-N-(5-(1-(3-fluoropyridin-2-yl)-4-methyl-1,2,5,6-tetrahydropyridin-3-yl)pyrazin-2-yl)-6-methoxybenzamide]",0.035 µM
14,"CC1=C(c2cnc(NC(=O)c3c(C)cccc3F)cn2)CN(c2ncc(C)s2)CC1 [Compound 50, 2-fluoro-6-methyl-N-(5-(4-methyl-1-(5-methylthiazol-2-yl)-1,2,5,6-tetrahydropyridin-3-yl)pyrazin-2-yl)benzamide]",0.037 µM
15,"CC1=C(c2ccc(NC(=O)c3c(Cl)cncc3Cl)cc2)CN(c2ccccn2)CC1 [Compound 51, 3,5-dichloro-N-(4-(4-methyl-1-(pyridin-2-yl)-1,2,5,6-tetrahydropyridin-3-yl)phenyl)isonicotinamide]",0.037 µM
16,"CC1=C(c2ccc(NC(=O)c3cc(F)ccc3C)nc2)CN(c2nnn(C)n2)CC1 [Compound 53, 5-fluoro-2-methyl-N-(5-(4-methyl-1-(2-methyl-2H-tetrazol-5-yl)-1,2,5,6-tetrahydropyridin-3-yl)pyridin-2-yl) benzamide]",0.04 µM
17,"CC1=C(c2ccc(NC(=O)c3c(F)cccc3F)cc2)CN(c2nc(Cl)cs2)CC1 [Compound 54, N-(4-(1-(4-chlorothiazol-2-yl)-4-methyl-1,2,5,6-tetrahydropyridin-3-yl)phenyl)-2,6-difluorobenzamide]",0.04 µM
18,"CC1=C(c2ccc(NC(=O)c3c(Cl)cncc3Cl)cc2)CN(c2ncccc2F)CC1 [Compound 55, 3,5-dichloro-N-(4-(1-(3-fluoropyridin-2-yl)-4-methyl-1,2,5,6-tetrahydropyridin-3-yl)phenyl)isonicotinamide]",0.041 µM
19,"Cn1nnc(N2CCC(Cl)=C(c3ccc(NC(=O)c4c(F)cccc4Cl)cc3)C2)n1 [Compound 56, 2-chloro-N-(4-(4-chloro-1-(2-methyl-2H-tetrazol-5-yl)-1,2,5,6-tetrahydropyridin-3-yl)phenyl)-6-fluorobenzamide]",0.041 µM
20,"CC1=C(c2ccc(NC(=O)c3c(C)cccc3Cl)cc2)CN(c2nnn(C)n2)CC1 [Compound 57, 2-chloro-6-methyl-N-(4-(4-methyl-1-(2-methyl-2H-tetrazol-5-yl)-1,2,5,6-tetrahydropyridin-3-yl)phenyl) benzamide]",0.041 µM

# Other lines, results leading:
row,IC50,Structure (SMILES)
1,0.04 µM,"CC1=C(c2cnc(NC(=O)c3cccc(F)c3C)cn2)CN(c2ncc(C)s2)CC1 [Compound 52, 3-fluoro-2-methyl-N-(5-(4-methyl-1-(5-methylthiazol-2-yl)-1,2,5,6-tetrahydropyridin-3-yl)pyrazin-2-yl)benzamide hydrochloride]"
2,0.036 µM,"CC1=C(c2cnc(NC(=O)c3c(F)cccc3Cl)cn2)CN(c2ncc(C)s2)CC1 [Compound 48, 2-chloro-6-fluoro-N-(5-(4-methyl-1-(5-methylthiazol-2-yl)-1,2,5,6-tetrahydropyridin-3-yl)pyrazin-2-yl)benzamide]"
3,0.036 µM,"CC1=C(c2cnc(NC(=O)c3cccc(F)c3Cl)cn2)CN(c2ncccc2F)CC1 [Compound 49, 2-chloro-3-fluoro-N-(5-(1-(3-fluoropyridin-2-yl)-4-methyl-1,2,5,6-tetrahydropyridin-3-yl)pyrazin-2-yl)benzamide]"
4,0.035 µM,"CCc1cnc(N2CCC(C)=C(c3cnc(NC(=O)c4c(F)cccc4F)cn3)C2)s1 [Compound 47, N-(5-(1-(5-ethylthiazol-2-yl)-4-methyl-1,2,5,6-tetrahydropyridin-3-yl)pyrazin-2-yl)-2,6-difluorobenzamide hydrochloride]"
5,0.033 µM,"CC1=C(c2ccc(NC(=O)c3c(C)cccc3F)cc2)CN(c2nnn(C)n2)CC1 [Compound 45, 2-fluoro-6-methyl-N-(4-(4-methyl-1-(2-methyl-2H-tetrazol-5-yl)-1,2,5,6-tetrahydropyridin-3-yl)phenyl) benzamide]"
6,0.031 µM,"CC1=C(c2cnc(NC(=O)c3c(F)cc(Br)cc3F)cn2)CN(c2ncccc2F)CC1 [Compound 44, 4-bromo-2,6-difluoro-N-(5-(1-(3-fluoropyridin-2-yl)-4-methyl-1,2,5,6-tetrahydropyridin-3-yl)pyrazin-2-yl) benzamide]"
7,0.028 µM,"CC1=C(c2cnc(NC(=O)c3cccc(F)c3C)cn2)CN(c2ncccc2F)CC1 [Compound 42, 3-fluoro-N-(5-(1-(3-fluoropyridin-2-yl)-4-methyl-1,2,5,6-tetrahydropyridin-3-yl)pyrazin-2-yl)-2-methylbenzamide]"
8,0.027 µM,"CC1=C(c2cnc(NC(=O)c3cc(F)ccc3F)cn2)CN(c2ncccc2F)CC1 [Compound 40, 2,5-difluoro-N-(5-(1-(3-fluoropyridin-2-yl)-4-methyl-1,2,5,6-tetrahydropyridin-3-yl)pyrazin-2-yl)benzamide]"
9,0.022 µM,"CC1=C(c2ccc(NC(=O)c3c(F)cccc3F)cc2)CN(c2ccccn2)CC1 [Compound 33, 2,6-difluoro-N-(4-(4-methyl-1-(pyridin-2-yl)-1,2,5,6-tetrahydropyridin-3-yl)phenyl)benzamide]"
10,0.022 µM,"Cn1nnc(N2CCC(Cl)=C(c3ccc(NC(=O)c4c(F)cccc4F)cc3)C2)n1 [Compound 34, N-(4-(4-chloro-1-(2-methyl-2H-tetrazol-5-yl)-1,2,5,6-tetrahydropyridin-3-yl)phenyl)-2,6-difluorobenzamide]"
11,0.021 µM,"CC1=C(c2cnc(NC(=O)c3cnccc3C)cn2)CN(c2ncccc2F)CC1 [Compound 31, N-(5-(1-(3-fluoropyridin-2-yl)-4-methyl-1,2,5,6-tetrahydropyridin-3-yl)pyrazin-2-yl)-4-methylnicotinamide]"
12,0.017 µM,"CC1=C(c2ccc(NC(=O)c3ccccc3Cl)cc2)CN(c2nnn(C)n2)CC1 [Compound 25, 2-chloro-N-(4-(4-methyl-1-(2-methyl-2H-tetrazol-5-yl)-1,2,5,6-tetrahydropyridin-3-yl)phenyl)benzamide]"
13,0.014 µM,"CC1=C(c2cnc(NC(=O)c3c(F)cccc3F)cn2)CN(c2ncccc2O)CC1 [Compound 24, 2,6-difluoro-N-(5-(1-(3-hydroxypyridin-2-yl)-4-methyl-1,2,5,6-tetrahydropyridin-3-yl)pyrazin-2-yl)benzamide]"

# Same assay, conditions: Jurkat/PHA/1% FBS; numeric values; hydrochloride
row,IC50,Structure (SMILES)
1,0.021 µM,"O=C(Nc1ccc(C2=C(Cl)CCN(c3nccs3)C2)cc1)c1c(F)cccc1F [Compound 32, N-(4-(4-chloro-1-(thiazol-2-yl)-1,2,5,6-tetrahydropyridin-3-yl)phenyl)-2,6-difluorobenzamide hydrochloride]"
